Reference: patent publication US10246453B2, “Benzenesulfonamide compounds and their use as therapeutic agents” (Xenon Pharmaceuticals Inc., priority 2016, dated 2019)
Counter-ions that a name gives are not always drawn. Like-named read-outs stand apart in the source and are kept apart here.

Legend:
NaV1.6 = NaV1.6 (Homo sapiens (Human), UniProt Q9UQD0); test: Sodium Influx Assay (Flux), NaV1.6
NaV1.1 = NaV1.1 (Homo sapiens (Human), UniProt P35498); test: Sodium Influx Assay (Flux), NaV1.1; assay type: cell-based; conditions: Trex HEK293 cells, ANG2 dye; arithmetic mean
NaV1.5 = NaV1.5 (Homo sapiens (Human), UniProt Q14524); test: Sodium Influx Assay (Flux), NaV1.5; conditions: read-out: Flux NaV1.5 IC50; Trex HEK293 cells, ANG2 dye; arithmetic mean
Chain of NaV1.5 (Q14524 other isoform, or with tags, fused parts or gaps): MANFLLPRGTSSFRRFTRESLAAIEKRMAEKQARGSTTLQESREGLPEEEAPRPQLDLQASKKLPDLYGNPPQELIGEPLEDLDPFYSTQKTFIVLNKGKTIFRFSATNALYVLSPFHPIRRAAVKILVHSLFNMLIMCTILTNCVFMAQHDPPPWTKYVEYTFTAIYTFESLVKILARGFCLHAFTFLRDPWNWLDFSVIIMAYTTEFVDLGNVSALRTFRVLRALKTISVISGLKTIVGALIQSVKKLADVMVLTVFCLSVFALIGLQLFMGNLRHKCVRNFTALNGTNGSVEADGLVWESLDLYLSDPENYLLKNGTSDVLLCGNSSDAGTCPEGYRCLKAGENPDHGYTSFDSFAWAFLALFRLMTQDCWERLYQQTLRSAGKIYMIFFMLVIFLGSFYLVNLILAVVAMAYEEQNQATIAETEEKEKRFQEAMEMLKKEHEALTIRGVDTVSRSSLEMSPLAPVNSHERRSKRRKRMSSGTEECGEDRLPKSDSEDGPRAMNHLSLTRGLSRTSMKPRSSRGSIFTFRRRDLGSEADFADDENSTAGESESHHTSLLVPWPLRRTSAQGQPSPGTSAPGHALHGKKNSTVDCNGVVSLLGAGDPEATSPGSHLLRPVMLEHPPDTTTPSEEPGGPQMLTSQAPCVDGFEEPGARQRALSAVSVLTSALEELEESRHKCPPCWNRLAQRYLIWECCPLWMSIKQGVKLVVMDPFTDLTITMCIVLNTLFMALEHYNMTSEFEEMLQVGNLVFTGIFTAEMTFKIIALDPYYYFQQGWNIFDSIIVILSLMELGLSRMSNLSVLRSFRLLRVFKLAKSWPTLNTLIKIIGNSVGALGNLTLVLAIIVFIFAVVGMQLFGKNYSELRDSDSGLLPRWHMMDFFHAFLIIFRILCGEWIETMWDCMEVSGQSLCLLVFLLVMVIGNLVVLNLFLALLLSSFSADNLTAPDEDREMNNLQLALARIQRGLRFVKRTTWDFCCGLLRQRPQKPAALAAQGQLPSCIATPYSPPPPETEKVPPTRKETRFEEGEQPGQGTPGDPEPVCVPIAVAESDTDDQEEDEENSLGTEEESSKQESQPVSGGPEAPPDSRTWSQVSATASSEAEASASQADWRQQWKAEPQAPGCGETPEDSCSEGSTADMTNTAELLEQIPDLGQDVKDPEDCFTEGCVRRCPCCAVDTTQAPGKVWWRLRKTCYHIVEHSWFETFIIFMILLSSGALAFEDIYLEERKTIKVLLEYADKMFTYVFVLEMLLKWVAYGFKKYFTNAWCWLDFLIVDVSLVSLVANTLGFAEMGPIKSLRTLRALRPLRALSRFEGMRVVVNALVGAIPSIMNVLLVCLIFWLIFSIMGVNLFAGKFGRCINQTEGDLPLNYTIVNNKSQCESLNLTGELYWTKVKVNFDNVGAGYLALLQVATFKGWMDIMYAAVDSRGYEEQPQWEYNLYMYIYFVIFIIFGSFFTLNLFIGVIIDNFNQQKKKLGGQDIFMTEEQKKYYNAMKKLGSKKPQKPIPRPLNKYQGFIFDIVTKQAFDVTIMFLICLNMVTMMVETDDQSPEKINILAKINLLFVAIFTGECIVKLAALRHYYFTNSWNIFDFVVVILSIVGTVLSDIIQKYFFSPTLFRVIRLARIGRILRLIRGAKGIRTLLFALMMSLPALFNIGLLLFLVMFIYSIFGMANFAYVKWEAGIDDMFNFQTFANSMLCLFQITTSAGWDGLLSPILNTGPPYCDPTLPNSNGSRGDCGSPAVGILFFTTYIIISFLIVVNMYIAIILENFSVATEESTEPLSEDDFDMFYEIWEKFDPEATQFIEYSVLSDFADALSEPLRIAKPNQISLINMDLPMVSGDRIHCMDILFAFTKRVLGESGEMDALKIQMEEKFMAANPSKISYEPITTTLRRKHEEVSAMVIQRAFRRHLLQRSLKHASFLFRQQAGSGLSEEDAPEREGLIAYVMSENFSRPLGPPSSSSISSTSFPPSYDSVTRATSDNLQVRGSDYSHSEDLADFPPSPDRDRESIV

[1] = read-out: Flux NaV1.6 IC50, Trex HEK293 cells, ANG2 dye, arithmetic mean

Structure (SMILES)	IC50 (NaV1.6; [1])	IC50 (NaV1.1)	IC50 (NaV1.5)	IC50 (NaV1.6)
Cc1c(F)cccc1CN1CC[C@H](N(C)c2cc(F)c(S(=O)(=O)Nc3cscn3)cc2Cl)C1 [Example 220, (S)-5-chloro-2-fluoro-4-((1-(3-fluoro-2-methylbenzyl)pyrrolidin-3-yl)(methyl)amino)-N-(thiazol-4-yl)benzenesulfonamide]	3.69 µM	5.84 µM	8.19 µM	
O=S(=O)(Nc1nccs1)c1ccc(OC2CCN(Cc3ccc4ccccc4c3)CC2)c(Cl)c1 [Example 51, 3-chloro-4-((1-(naphthalen-2-ylmethyl)piperidin-4-yl)oxy)-N-(thiazol-2-yl)benzenesulfonamide 2,2,2-trifluoroacetate]	6.58 µM	17.6 µM	3.48 µM	
CN(c1cc(F)c(S(=O)(=O)Nc2cscn2)cc1Cl)[C@H]1CCN(Cc2ccccc2O)C1 [Example 209, (S)-5-chloro-2-fluoro-4-((1-(2-hydroxybenzyl)pyrrolidin-3-yl)(methyl)amino)-N-(thiazol-4-yl)benzenesulfonamide]	2.15 µM	20 µM	20.2 µM	
CN(c1cc(F)c(S(=O)(=O)Nc2cscn2)cc1Cl)[C@@H]1CN(Cc2ccccc2)CC12CC2 [Example 265, (S)-4-((5-benzyl-5-azaspiro[2.4]heptan-7-yl)(methyl)amino)-5-chloro-2-fluoro-N-(thiazol-4-yl)benzenesulfonamide 2,2,2-trifluoroacetate]	4.79 µM	6.35 µM	6.8 µM	
Cc1ccc(CN2CCC(Oc3ccc(S(=O)(=O)Nc4nccs4)cc3Cl)CC2)cc1C [Example 93, 3-chloro-4-(1-(3,4-dimethylbenzyl)piperidin-4-yloxy)-N-(thiazol-2-yl)benzenesulfonamide]	3.62 µM	12.6 µM	12.5 µM	
Cc1cc(S(=O)(=O)Nc2cscn2)ccc1N(C)[C@H]1CCN(Cc2cc(F)ccc2F)C1 [Example 285, (S)-4-((1-(2,5-difluorobenzyl)pyrrolidin-3-yl)(methyl)amino)-3-methyl-N-(thiazol-4-yl)benzenesulfonamide 2,2,2-trifluoroacetate]	0.389 µM	4.37 µM	2.71 µM	
CC(C)(c1ccccc1)N1CCC(Oc2cc(F)c(S(=O)(=O)Nc3nccs3)cc2Cl)CC1 [Example 60, 5-chloro-2-fluoro-4-((1-(2-phenylpropan-2-yl)piperidin-4-yl)oxy)-N-(thiazol-2-yl)benzenesulfonamide 2,2,2-trifluoroacetate]	0.452 µM	13.3 µM	15.9 µM	
O=S(=O)(Nc1nccs1)c1ccc(OC2CCN(Cc3ccncc3)CC2)c(Cl)c1 [Example 63, 3-chloro-4-((1-(pyridin-4-ylmethyl)piperidin-4-yl)oxy)-N-(thiazol-2-yl)benzenesulfonamide]	27.7 µM	> 30 µM	> 30 µM	
CCN(c1ccc(S(=O)(=O)Nc2ncns2)cc1Cl)[C@H]1CCN(Cc2cccc(C)c2)C1 [Example 37, (S)-3-chloro-4-(ethyl(1-(3-methylbenzyl)pyrrolidin-3-yl)amino)-N-(1,2,4-thiadiazol-5-yl)benzenesulfonamide]	0.195 µM	> 30 µM	> 30 µM	
C[C@H](c1ccccc1)N1CCC(Oc2ccc(S(=O)(=O)Nc3ccon3)cc2Cl)CC1 [Example 305, (R)-3-chloro-N-(isoxazol-3-yl)-4-((1-(1-phenylethyl)piperidin-4-yl)oxy)benzenesulfonamide formate]			> 30 µM	
O=S(=O)(Nc1cscn1)c1ccc(O[C@@H]2C[C@H]3CC[C@@H](C2)N3Cc2cccc(C(F)F)c2)c(Cl)c1 [Example 256, 3-chloro-4-(((1R,3s,5S)-8-(3-(difluoromethyl)benzyl)-8-azabicyclo[3.2.1]octan-3-yl)oxy)-N-(thiazol-4-yl)benzenesulfonamide]			6.72 µM	
C[C@@H]1CN(Cc2ccccc2F)CC[C@H]1Oc1ccc(S(=O)(=O)Nc2nccs2)cc1Cl (relative stereo) [Example 10B, 3-chloro-4-((trans-1-(2-fluorobenzyl)-3-methylpiperidin-4-yl)oxy)-N-(thiazol-2-yl)benzenesulfonamide]				1.16 µM
CC(c1ccccc1)N1CCC(Oc2ccc(S(=O)(=O)Nc3nccs3)cc2Cl)CC1 (centres unmarked) [Example 52, 3-chloro-4-((1-(1-phenylethyl)piperidin-4-yl)oxy)-N-(thiazol-2-yl)benzenesulfonamide]	0.305 µM		14.4 µM	
COc1cccc(CN2CC[C@H](N(C)c3cc(F)c(S(=O)(=O)Nc4cscn4)cc3Cl)C2)c1 [Example 219, (S)-5-chloro-2-fluoro-4-((1-(3-methoxybenzyl)pyrrolidin-3-yl)(methyl)amino)-N-(thiazol-4-yl)benzenesulfonamide]	3.2 µM	7.53 µM		
C[C@@H]1CN(Cc2ccccc2F)CC[C@@H]1Oc1ccc(S(=O)(=O)Nc2nccs2)cc1Cl (relative stereo) [Example 10A, 3-chloro-4-((cis-1-(2-fluorobenzyl)-3-methylpiperidin-4-yl)oxy)-N-(thiazol-2-yl)benzenesulfonamide]				1.27 µM
Cc1cc(S(=O)(=O)Nc2cscn2)ccc1N(C)[C@H]1CCN(Cc2ccccc2)C1 [Example 284, (S)-4-((1-benzylpyrrolidin-3-yl)(methyl)amino)-3-methyl-N-(thiazol-4-yl)benzenesulfonamide 2,2,2-trifluoroacetate]	0.718 µM	10.5 µM		
O=S(=O)(Nc1cscn1)c1cc(Cl)c(OC2CCN(Cc3ccccc3)CC2)cc1F [Example 238, 4-((1-benzylpiperidin-4-yl)oxy)-5-chloro-2-fluoro-N-(thiazol-4-yl)benzenesulfonamide 2,2,2-trifluoroacetate]	2.1 µM	27.8 µM		

Continued, in another order:

IC50 (NaV1.6; [1])	IC50 (NaV1.1)	Structure (SMILES)	IC50 (NaV1.5)	IC50 (NaV1.6)
2.92 µM	4.98 µM	Cc1cc(CN2CC[C@H](N(C)c3cc(F)c(S(=O)(=O)Nc4cscn4)cc3Cl)C2)ccc1F [Example 211, (S)-5-chloro-2-fluoro-4-((1-(4-fluoro-3-methylbenzyl)pyrrolidin-3-yl)(methyl)amino)-N-(thiazol-4-yl)benzenesulfonamide]	7.85 µM	
2.12 µM	> 30 µM	Cc1nc(CN2CC[C@H](N(C)c3cc(F)c(S(=O)(=O)Nc4cscn4)cc3C)C2)c(C)o1 [Example 245, (S)-4-((1-((2,5-dimethyloxazol-4-yl)methyl)pyrrolidin-3-yl)(methyl)amino)-2-fluoro-5-methyl-N-(thiazol-4-yl)benzenesulfonamide 2,2,2-trifluoroacetate]	> 30 µM	
0.245 µM	10.9 µM	Cc1cc(S(=O)(=O)Nc2cscn2)c(F)cc1N(C)[C@H]1CCN(Cc2coc(C(C)C)n2)C1 [Example 133, (S)-2-fluoro-4-((1-((2-isopropyloxazol-4-yl)methyl)pyrrolidin-3-yl)(methyl)amino)-5-methyl-N-(thiazol-4-yl)benzenesulfonamide]	> 30 µM	
0.285 µM	> 30 µM	Cc1ccc(F)c(CN2CC[C@H](N(C)c3cc(F)c(S(=O)(=O)Nc4cscn4)cc3C)C2)n1 [Example 130, (S)-2-fluoro-4-((1-((3-fluoro-6-methylpyridin-2-yl)methyl)pyrrolidin-3-yl)(methyl)amino)-5-methyl-N-(thiazol-4-yl)benzenesulfonamide]	24.2 µM	
5.2 µM	27.5 µM	CN(c1cc(F)c(S(=O)(=O)Nc2cscn2)cc1Cl)[C@H]1CCN(Cc2cccs2)C1 [Example 215, (S)-5-chloro-2-fluoro-4-(methyl(1-(thiophen-2-ylmethyl)pyrrolidin-3-yl)amino)-N-(thiazol-4-yl)benzenesulfonamide]	> 30 µM	
1.6 µM	6.75 µM	Cc1cc(S(=O)(=O)Nc2cscn2)c(F)cc1N(C)[C@H]1CCN(CCc2ccccc2)C1 [Example 115, (S)-2-fluoro-5-methyl-4-(methyl(1-phenethylpyrrolidin-3-yl)amino)-N-(thiazol-4-yl)benzenesulfonamide]	19.3 µM	
0.217 µM	5.07 µM	Cc1cc(S(=O)(=O)Nc2cscn2)c(F)cc1N(C)[C@H]1CCN(Cc2csc(C(F)(F)F)n2)C1 [Example 137, (S)-2-fluoro-5-methyl-4-(methyl(1-((2-(trifluoromethyl)thiazol-4-yl)methyl)pyrrolidin-3-yl)amino)-N-(thiazol-4-yl)benzenesulfonamide]	16.5 µM	
0.211 µM		Cc1cc(S(=O)(=O)Nc2cscn2)c(F)cc1N(C)[C@H]1CCN(Cc2cccc(F)c2)C1 [compound 157, (S)-2-fluoro-4-((1-(3-fluorobenzyl)pyrrolidin-3-yl)(methyl)amino)-5-methyl-N-(thiazol-4-yl)benzenesulfonamide]	18.6 µM	
2.08 µM	> 30 µM	Cc1cc(S(=O)(=O)Nc2cscn2)c(F)cc1N(C)[C@H]1CCN(Cc2cscn2)C1 [Example 140, (S)-2-fluoro-5-methyl-4-(methyl(1-(thiazol-4-ylmethyl)pyrrolidin-3-yl)amino)-N-(thiazol-4-yl)benzenesulfonamide]	> 30 µM	
0.258 µM	17.9 µM	Cc1cc(S(=O)(=O)Nc2cscn2)c(F)cc1N(C)[C@H]1CCN(Cc2ccccc2O)C1 [Example 113, (S)-2-fluoro-4-((1-(2-hydroxybenzyl)-pyrrolidin-3-yl)(methyl)amino)-5-methyl-N-(thiazol-4-yl)benzenesulfonamide]		
3.77 µM		Cc1cc(S(=O)(=O)Nc2cscn2)c(F)cc1N(C)[C@@H]1CCN(Cc2ccccc2)C1 [Example 272, (R)-4-((1-benzylpyrrolidin-3-yl)(methyl)amino)-2-fluoro-5-methyl-N-(thiazol-4-yl)benzenesulfonamide]		
